pIC50: −log10 of the molar value.
How the values were obtained:
[1] = target: LRRK2 G2019S enzyme (Homo sapiens, UniProt Q5S007, G2019S); assay: LRRK2 G2019S TR-FRET biochemical assay (Biological Example 1); settings: 134 μM ATP, 5 nM LRRK2, LRRKtide substrate
Protocol: • LRRK2 G2019S enzyme • Substrate (LRRKtide) • ATP • TR-FRET dilution buffer • pLRRKtide antibody • 384-well assay plate • DMSO Enzyme Reaction Conditions • 50 mM Tris pH 7.5, 10 mM MgCl2, 1 mM EGTA, 0.01% Brij-35, 2 mM DTT • 5 nM LRRK2 • 134 μM ATP • 60 minute reaction time • 23° C. reaction temperature • 10 μL total reaction volume Detection Reaction Conditions • 1×TR-FRET dilution buffer • 10 mM EDTA • 2 nM antibody • 23° C. reaction temperature • 10 μL total reaction volume
Compounds are prepared by initially diluting to 1 mM with DMSO. 35 μL of reference compound solution, 35 μL of test compound solution, and 35 μL HPE are successively added to the source plate (384-well assay plate, Labcyte). The plates are centrifuged at 2500 rpm for 1 minute and sealed in foil. POD is used to perform a 3.162 fold serial dilution and 100 nL of reference compound solution, test compound solution, HPE and ZPE are transferred to assay plates. The assay plate is centrifuged at 2500 rpm for 1 minute, and sealed with foil.
To perform the enzyme reaction, 5 μL of LRRKtide substrate and kinase mixture in assay buffer is added to all wells of the assay plate. The plate is centrifuged to concentrate the mixture at the bottom of the wells. The assay plate is incubated at 23° C. for 20 minutes. Following incubation, 5 μL of 2×ATP in assay buffer is added to each well, and plates are centrifuged to concentrate the mixture at the bottom of the wells. The plate is incubated at 23° C. for 60 minutes.
To perform the detection of the reaction, EDTA completely mixed in TR-FRET dilution buffer is added to antibody reagent. 10 μL of detection reagent is added to all wells of each well of the assay plate and the plate is centrifuged to concentrate the mixture at the bottom of the wells. The plate is then incubated at 23° C. for 60 minutes. Plates are read on Perkin Elmer Envision 2104 instrument in TR-FRET mode using a 340 nm excitation filter, 520 nm fluorescence emission filter, and 490 or 495 nm terbium emission filter.

[2] = Metabolic stability in human liver microsomes (Biological Example 2); type: in vitro ADME; settings: hepatic clearance (CLhep) scaled from human liver microsomes, 1 μM, well-stirred model
Protocol: Metabolic stability of select compounds was evaluated in human liver microsomes (from Corning or XenoTech, LLC) using a 96-well plate assay format. Compounds were incubated at 37° C. at 1 μM final concentration in the microsomal matrix (0.5 mg/mL total protein) in the presence or absence of NADPH cofactor. An NADPH regenerating system, comprised of NADP, MgCl2, isocitric acid, and isocitrate dehydrogenase, was used in the assay. Enzymatic reactions were conducted for 0, 5, 10, 20, 30, or 60 min before termination by addition of acetonitrile containing tolbutamide and labetalol internal standards (100 ng/mL). After shaking for 10 min, plates were subjected to centrifugation (4000 rpm at 4° C.) for 20 min and supernatants mixed 1:3 with HPLC grade water. Samples were analyzed by LC-MS/MS using appropriate MRM transitions for each analyte and internal standard (IS). Analyte/IS peak area ratios were used to determine percent compound remaining at each time point. Intrinsic clearance (Clint; expressed as mL·min^−1·mg^−1) was calculated from the first order elimination constant (k, min^−1) of test article decay and the volume of the incubation. These values were scaled to intrinsic organ clearance (Clint) using human specific scaling factors (48.8 mg microsomal protein per g liver; 25.7 g liver per kg body weight). Organ Clint was subsequently converted to hepatic clearance, HLM, (CLhep, mL·min-1·kg-1) using the well-stirred model of hepatic elimination, where Qh is human hepatic blood flow (20.7 mL·min-1·kg-1).
CLhep is the projected human clearance in the liver based on the above in vitro assay. A lower value is indicative of less compound being removed by the liver.

[3] = target: T1, MDR1 (P-glycoprotein) (Homo sapiens, UniProt P08183); assay: MDR1-MDCK permeability / efflux (Biological Example 3); type: in vitro ADME; settings: MDR1-MDCK cells, pH 7.4; for efflux ratio at 1 μM: dog
T1 construct: expressed in transfected cells; host or cells: MDR1-MDCK cells
Protocol: The blood brain barrier (BBB) separates circulating blood from the extracellular fluid of the central nervous system (CNS). The passive membrane permeability (Papp) and MDR1 (P-glycoprotein) substrate efflux potential are determined using the MDR1-MDCK cell line as an in vitro model of the effective permeability of a compound through the BBB. A bidirectional assay was conducted in pre-plated MDR1-MDCK cells using a 12 or 96-well plate in the absence or presence of MDR1 inhibitor (GF120918 or Valspodar). Assays were run in duplicate in transport buffer (HBSS, pH 7.4) for 90 or 120 min (minutes) at 37° C., using a test article concentration of 1 μM. Monolayer integrity was confirmed using Lucifer yellow, and appropriate positive controls for passive permeability and MDR1 transport were included in each experiment. Following incubation, samples from donor and receiver compartments are removed and quenched with acetonitrile containing an appropriate internal standard (IS). Protein was precipitated by centrifugation for 10 min at 3220 g, and supernatants diluted in ultra-pure water (if necessary) prior to analysis by LC-MS/MS using appropriate MRM transitions for analytes and IS. Papp (apparent permeability expressed in cm/sec [centimeter/second]) values were calculated according to the following equation:
[formula] where VR is the solution volume in the receiver chamber (apical or basolateral side), Area is the surface area for the insert membrane), Time is incubation time expressed in seconds, CR is the peak area ratio (analyte/IS) in the receiver chamber, CA is the average of the initial and final concentrations in the donor chamber, and Co is the initial peak area ratio in the donor chamber. Papp was determined in both the apical to basolateral (A→B) and basolateral to apical (B→A) directions.
Monolayer efflux ratios (ER) were derived using the following equation: […]
Compounds with an MDR1-MDCK efflux ratio above 20 are not expected to cross the blood brain barrier.

T1 sequence (P08183 whole entry): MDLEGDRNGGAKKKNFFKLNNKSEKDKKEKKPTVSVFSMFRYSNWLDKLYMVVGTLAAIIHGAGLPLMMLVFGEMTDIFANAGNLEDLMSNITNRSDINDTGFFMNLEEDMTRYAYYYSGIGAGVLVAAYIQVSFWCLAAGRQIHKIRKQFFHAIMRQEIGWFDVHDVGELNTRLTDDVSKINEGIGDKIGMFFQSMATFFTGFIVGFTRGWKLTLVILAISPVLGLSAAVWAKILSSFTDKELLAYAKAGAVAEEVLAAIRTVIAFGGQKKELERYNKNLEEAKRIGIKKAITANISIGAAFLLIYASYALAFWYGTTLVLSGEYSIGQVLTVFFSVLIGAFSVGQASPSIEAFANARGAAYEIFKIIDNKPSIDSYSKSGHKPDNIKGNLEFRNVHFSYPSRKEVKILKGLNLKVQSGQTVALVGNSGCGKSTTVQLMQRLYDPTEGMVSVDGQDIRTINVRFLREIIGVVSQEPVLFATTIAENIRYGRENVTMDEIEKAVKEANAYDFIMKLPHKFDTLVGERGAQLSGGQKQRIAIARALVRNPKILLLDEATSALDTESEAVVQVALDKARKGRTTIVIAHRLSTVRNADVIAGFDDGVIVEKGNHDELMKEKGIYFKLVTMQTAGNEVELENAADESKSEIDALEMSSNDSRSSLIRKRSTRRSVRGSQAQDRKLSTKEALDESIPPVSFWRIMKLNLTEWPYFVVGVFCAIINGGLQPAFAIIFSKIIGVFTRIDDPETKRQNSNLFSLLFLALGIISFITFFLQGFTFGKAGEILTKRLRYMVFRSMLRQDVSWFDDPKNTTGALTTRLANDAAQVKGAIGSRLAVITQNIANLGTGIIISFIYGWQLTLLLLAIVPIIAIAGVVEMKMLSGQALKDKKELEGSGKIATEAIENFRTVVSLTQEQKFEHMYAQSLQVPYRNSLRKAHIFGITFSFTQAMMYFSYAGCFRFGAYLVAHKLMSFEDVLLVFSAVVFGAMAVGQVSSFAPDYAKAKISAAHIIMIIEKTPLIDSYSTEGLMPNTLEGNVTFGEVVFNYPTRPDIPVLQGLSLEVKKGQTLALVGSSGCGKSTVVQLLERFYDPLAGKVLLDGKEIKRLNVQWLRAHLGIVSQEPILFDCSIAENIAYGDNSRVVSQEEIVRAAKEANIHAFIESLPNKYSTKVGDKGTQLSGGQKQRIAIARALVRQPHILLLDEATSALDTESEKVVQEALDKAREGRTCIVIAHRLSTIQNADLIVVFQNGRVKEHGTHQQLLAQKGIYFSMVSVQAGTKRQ
LRRK2 G2019S enzyme, sequence (Q5S007 whole entry G2019S): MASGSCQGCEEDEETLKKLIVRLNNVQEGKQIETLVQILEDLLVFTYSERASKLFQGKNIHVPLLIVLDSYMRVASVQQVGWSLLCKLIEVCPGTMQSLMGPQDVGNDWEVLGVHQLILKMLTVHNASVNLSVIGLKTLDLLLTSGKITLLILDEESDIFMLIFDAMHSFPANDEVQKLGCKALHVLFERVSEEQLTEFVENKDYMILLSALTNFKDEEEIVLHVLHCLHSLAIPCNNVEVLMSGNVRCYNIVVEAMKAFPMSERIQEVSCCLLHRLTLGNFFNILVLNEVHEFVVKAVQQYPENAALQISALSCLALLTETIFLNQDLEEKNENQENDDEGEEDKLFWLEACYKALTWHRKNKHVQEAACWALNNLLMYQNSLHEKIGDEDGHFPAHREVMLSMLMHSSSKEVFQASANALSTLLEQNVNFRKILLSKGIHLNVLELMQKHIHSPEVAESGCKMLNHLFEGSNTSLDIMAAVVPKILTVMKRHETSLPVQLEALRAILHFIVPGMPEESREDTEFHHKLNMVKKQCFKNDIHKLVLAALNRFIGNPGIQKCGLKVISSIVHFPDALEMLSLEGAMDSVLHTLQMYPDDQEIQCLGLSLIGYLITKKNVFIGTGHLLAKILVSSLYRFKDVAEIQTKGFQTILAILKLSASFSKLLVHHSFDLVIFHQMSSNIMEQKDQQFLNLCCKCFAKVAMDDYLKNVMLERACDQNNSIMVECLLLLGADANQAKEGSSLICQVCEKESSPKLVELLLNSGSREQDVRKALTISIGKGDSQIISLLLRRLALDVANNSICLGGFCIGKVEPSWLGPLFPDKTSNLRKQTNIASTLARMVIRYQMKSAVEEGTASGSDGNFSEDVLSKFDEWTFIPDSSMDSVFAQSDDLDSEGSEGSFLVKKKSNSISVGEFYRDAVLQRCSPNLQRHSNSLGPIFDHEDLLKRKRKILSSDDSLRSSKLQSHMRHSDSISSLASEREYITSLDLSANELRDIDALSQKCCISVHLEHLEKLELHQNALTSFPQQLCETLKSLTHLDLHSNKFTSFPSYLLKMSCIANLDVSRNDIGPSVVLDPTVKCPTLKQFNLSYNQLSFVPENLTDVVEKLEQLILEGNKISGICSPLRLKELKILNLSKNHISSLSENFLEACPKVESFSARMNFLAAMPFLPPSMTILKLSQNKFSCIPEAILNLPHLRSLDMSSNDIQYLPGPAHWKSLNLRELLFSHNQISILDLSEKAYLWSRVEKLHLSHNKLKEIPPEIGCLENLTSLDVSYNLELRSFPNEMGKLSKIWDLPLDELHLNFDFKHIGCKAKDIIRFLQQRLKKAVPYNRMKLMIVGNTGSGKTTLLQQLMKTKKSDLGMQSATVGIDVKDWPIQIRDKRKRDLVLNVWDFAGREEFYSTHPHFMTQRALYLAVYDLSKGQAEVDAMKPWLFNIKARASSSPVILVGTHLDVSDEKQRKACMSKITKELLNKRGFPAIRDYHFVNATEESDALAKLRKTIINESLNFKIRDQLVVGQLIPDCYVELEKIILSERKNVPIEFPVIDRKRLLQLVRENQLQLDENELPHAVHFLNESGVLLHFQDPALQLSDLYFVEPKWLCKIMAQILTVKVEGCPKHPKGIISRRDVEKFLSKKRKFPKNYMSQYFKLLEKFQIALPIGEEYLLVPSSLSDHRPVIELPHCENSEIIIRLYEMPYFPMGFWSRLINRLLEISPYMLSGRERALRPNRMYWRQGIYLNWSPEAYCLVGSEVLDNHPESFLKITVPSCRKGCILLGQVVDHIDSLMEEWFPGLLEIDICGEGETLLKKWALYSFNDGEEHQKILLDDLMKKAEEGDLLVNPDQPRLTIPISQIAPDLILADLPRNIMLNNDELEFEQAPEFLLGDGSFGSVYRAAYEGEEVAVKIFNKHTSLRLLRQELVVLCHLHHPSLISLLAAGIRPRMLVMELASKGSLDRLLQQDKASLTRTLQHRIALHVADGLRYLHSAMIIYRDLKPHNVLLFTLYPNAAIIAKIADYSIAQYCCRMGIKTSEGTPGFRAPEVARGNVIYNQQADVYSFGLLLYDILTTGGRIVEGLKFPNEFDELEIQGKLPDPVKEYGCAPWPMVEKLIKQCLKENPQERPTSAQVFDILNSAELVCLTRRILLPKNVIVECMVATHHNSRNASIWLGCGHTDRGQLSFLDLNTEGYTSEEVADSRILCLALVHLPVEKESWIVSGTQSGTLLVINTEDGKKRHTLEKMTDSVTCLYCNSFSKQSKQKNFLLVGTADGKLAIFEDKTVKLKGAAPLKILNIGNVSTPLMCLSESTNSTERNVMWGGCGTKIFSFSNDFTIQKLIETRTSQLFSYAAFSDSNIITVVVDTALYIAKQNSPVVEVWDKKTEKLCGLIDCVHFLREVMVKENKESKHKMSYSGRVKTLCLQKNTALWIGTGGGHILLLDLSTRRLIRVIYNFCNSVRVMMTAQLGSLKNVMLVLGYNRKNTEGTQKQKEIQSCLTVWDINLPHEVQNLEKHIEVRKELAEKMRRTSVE

Row | Compound | pIC50 [1] | HLM Avg [2] [mL/min/kg] | efflux ratio at 1 μM [3] | MDCK-MDR1 Efflux Avg ([3]; efflux ratio, 1 μM)
1 | CCNc1nc(Nc2cn([C@H]3C[C@H]3C(N)=O)nc2C2CC2)ncc1C(F)(F)F (single isomer, unassigned) [Example 7, (1,2-cis)-2-(3-cyclopropyl-4-((4-(ethylamino)-5-(trifluoromethyl)pyrimidin-2-yl)amino)-1H-pyrazol-1-yl)cyclopropanecarboxamide] | 8.83 | 3.6 | 110 | 110
2 | CCNc1nc(Nc2cc([C@H]3C[C@H]3C(N)=O)nn2C2CC2)ncc1C(F)(F)F [Comparative Example A, reference compound] | 8.85 | 2.6 | 144 | –

Reference: patent US12358896B2, “LRRK2 inhibitors and methods of making and using thereof” (DENALI THERAPEUTICS INC., priority 2019, dated 2025)
